# Assay results: US8916565B2, “Pyrrolopyrazine-spirocyclic piperidine amides as modulators of ion channels” (priority 2011, dated 2014)
# pIC50: −log10 of the molar value.
# Target: human NaV subtype, like NaV 1.7 (Homo sapiens, UniProt Q15858)
# Assay: E-VIPR optical membrane potential assay with electrical stimulation
# Format: cell-based
# Settings: active against one or more sodium channels; Table 3 does not name the assay or NaV subtype; read-out: Binned Activity Data (IC50)
# human NaV subtype, like NaV 1.7, sequence (Q15858 whole entry): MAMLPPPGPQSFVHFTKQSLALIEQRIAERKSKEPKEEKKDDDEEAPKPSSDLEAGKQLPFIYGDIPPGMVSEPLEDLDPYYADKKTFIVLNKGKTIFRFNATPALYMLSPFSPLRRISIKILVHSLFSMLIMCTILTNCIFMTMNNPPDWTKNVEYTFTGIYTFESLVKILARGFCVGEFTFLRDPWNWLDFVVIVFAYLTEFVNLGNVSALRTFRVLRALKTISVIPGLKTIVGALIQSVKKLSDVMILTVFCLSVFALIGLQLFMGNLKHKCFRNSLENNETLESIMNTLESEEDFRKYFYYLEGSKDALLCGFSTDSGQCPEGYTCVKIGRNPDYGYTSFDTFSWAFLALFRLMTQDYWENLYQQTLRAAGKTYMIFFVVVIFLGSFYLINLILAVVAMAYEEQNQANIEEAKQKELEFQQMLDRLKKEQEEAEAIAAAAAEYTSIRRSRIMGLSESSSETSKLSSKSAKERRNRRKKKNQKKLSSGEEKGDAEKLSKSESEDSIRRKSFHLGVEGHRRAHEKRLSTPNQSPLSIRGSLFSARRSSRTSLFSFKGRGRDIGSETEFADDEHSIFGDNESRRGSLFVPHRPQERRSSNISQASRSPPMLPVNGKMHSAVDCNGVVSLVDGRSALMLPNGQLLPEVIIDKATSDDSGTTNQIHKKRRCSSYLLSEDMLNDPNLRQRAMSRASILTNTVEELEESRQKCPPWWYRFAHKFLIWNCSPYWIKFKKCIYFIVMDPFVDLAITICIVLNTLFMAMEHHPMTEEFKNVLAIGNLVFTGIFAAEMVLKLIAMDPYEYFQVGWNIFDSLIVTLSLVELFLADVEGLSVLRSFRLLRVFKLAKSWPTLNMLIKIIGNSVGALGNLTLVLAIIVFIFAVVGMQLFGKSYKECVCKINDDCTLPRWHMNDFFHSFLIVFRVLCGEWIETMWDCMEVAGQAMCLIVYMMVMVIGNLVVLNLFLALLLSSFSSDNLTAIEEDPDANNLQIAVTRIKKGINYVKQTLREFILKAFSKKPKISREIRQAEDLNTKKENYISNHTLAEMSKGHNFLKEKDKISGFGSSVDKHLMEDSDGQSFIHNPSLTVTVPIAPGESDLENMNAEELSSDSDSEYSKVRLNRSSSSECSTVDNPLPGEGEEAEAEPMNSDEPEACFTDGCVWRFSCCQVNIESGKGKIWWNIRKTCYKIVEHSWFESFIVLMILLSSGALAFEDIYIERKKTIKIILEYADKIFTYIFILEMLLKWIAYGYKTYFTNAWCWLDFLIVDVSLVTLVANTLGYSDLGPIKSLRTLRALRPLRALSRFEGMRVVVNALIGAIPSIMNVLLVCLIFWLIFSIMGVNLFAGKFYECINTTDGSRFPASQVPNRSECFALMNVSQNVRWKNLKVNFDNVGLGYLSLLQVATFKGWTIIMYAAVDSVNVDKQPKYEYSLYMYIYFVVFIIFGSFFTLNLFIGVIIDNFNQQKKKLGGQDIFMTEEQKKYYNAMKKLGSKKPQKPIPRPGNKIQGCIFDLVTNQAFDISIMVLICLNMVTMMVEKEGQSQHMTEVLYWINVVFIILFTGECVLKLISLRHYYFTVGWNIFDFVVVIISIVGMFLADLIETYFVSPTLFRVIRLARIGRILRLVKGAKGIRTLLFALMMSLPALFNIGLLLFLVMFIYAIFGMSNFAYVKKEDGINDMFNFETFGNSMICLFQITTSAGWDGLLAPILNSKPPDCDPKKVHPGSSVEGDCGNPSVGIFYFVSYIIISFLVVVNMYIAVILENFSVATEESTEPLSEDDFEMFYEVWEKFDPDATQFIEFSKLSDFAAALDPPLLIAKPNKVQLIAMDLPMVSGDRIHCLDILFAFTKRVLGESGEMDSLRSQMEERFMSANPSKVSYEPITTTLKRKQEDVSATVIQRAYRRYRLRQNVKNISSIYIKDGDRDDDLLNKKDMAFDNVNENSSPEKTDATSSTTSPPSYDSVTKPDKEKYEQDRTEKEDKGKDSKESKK
row,SMILES,pIC50
1,CC(=O)c1cc2n(c1)CC(C)(C)NC21CCN(C(=O)c2ccc(C3CCCCC3)cc2)CC1 [Compound 344],5.30 to 5.70
2,CC(=O)c1ccc2n1C(C)(C)CN(C)C21CCN(C(=O)c2ccc(OC(C)C)c(C(F)(F)F)c2)CC1 [Compound 536],5.30 to 5.70
3,CC(C)Oc1ccc(C(=O)N2CCC3(CC2)c2ccc(C(F)(F)F)n2C[C@@H](C)N3C)c(F)c1 [Compound 749],5.30 to 5.70
4,Cc1cccc(C(=O)N2CCC3(CC2)c2ccc(C(F)(F)F)n2CCN3C)n1 [Compound 63],< 5.30
5,CN1CCn2c(C(F)(F)F)ccc2C12CCN(C(=O)c1cccnc1N1CCC(O)C1)CC2 (centres unmarked) [Compound 116],< 5.30
6,CCCOc1ccc(C(=O)N2CCC3(CC2)c2ccc(C(C)=O)n2CCN3C)cc1OC [Compound 586],5.30 to 5.70
7,CC(=O)c1ccc2n1CCN(C)C21CCN(C(=O)c2ccc(S(=O)(=O)NC3CC3)cc2)CC1 [Compound 532],< 5.30
8,CN1CCn2c(Cl)ccc2C12CCN(C(=O)c1ccc(C3(O)CCCC3)cc1)CC2 [Compound 301],< 5.30
9,Cc1cc(C(=O)N2CCC3(CC2)NC(C)(C)Cn2cc(F)c(F)c23)ccc1OC(C)C [Compound 256],< 5.30
10,CN1CCn2c(C(F)(F)F)cc(Cl)c2C12CCN(C(=O)c1ccc(C(C)(C)O)cc1)CC2 [Compound 469],5.30 to 5.70
11,CC(=O)c1ccc2n1CCN(C)C21CCN(C(=O)c2ccc(C3CC3)cc2)CC1 [Compound 425],< 5.30
12,CNC(=O)N1CCn2c(C(F)(F)F)ccc2C12CCN(C(=O)c1ccc(OC(C)C)c(C)c1)CC2 [Compound 533],≥ 5.70
13,CN1CCn2c(Cl)ccc2C12CCN(C(=O)c1ccc(OCC(F)(F)F)cc1)CC2 [Compound 330],5.30 to 5.70
14,Cc1cc(C(=O)N2CCC3(CC2)c2ccc(C(=O)C(F)(F)F)n2CCN3C)ncc1OC(C)C [Compound 573],≥ 5.70
15,CN1CCn2c(C(=O)C(F)(F)F)ccc2C12CCN(C(=O)c1ccc(O)c(Cl)c1)CC2 [Compound 635],5.30 to 5.70
16,CC(C)Oc1ccc(C(=O)N2CCC3(CC2)c2c(F)cc(C(F)(F)F)n2CCN3C)cc1C#N [Compound 134],≥ 5.70
17,CN1CCn2c(C(F)(F)F)ccc2C12CCN(C(=O)c1ccc(-c3ccccc3)cc1)CC2 [Compound 659],< 5.30
18,COc1cc(C(=O)N2CCC3(CC2)c2c(Cl)cc(C(F)(F)F)n2CCN3C)ccc1OC(C)C [Compound 9],≥ 5.70
19,COc1ccc(C(=O)N2CCC3(CC2)c2ccc(C(=O)C4CC4)n2CCN3C)cc1Cl [Compound 484],≥ 5.70
20,CN1CCn2c(ccc2C(F)(F)C(F)(F)F)C12CCN(C(=O)c1ccc(C(C)(C)O)c(F)c1)CC2 [Compound 253],≥ 5.70
21,COc1nc(C(=O)N2CCC3(CC2)c2c(Cl)cc(C(F)(F)F)n2CCN3C)ccc1OC(C)C [Compound 379],≥ 5.70
22,COc1ccc(C(=O)N2CCC3(CC2)c2ccc(C(F)(F)F)n2CCN3C)cc1OC [Compound 321],< 5.30
23,CC(C)Oc1ccc(C(=O)N2CCC3(CC2)c2ccc(C(=O)C(F)(F)F)n2C(C)(C)CN3C)cc1F [Compound 16],5.30 to 5.70
24,CC(C)Oc1ccc(C(=O)N2CCC3(CC2)c2c(F)cc(C(F)(F)F)n2CCN3C)cn1 [Compound 431],5.30 to 5.70
25,COc1ccc(C(=O)N2CCC3(CC2)c2ccc(C(=O)C(F)(F)F)n2C[C@H](C)N3C)cc1Cl [Compound 608],≥ 5.70

row,SMILES,pIC50
1,CC(C)COc1ccc(C(=O)N2CCC3(CC2)c2ccc(C(=O)C(F)(F)F)n2CCN3C)nc1 [Compound 712],≥ 5.70
2,CC(=O)c1ccc2n1CCN(C)C21CCN(C(=O)c2ccc(Oc3ccccc3)cc2)CC1 [Compound 78],5.30 to 5.70
3,CC(C)C(=O)c1ccc2n1CCN(C)C21CCN(C(=O)c2ccc(O)c(Cl)c2)CC1 [Compound 620],5.30 to 5.70
4,COc1cc(C(=O)N2CCC3(CC2)c2ccc(C(C)=O)n2CCN3C)ccc1COCCC(F)(F)F [Compound 373],≥ 5.70
5,CC(C)Oc1ccc(C(=O)N2CCC3(CC2)c2ccc(C(F)(F)F)n2CCN3C)cc1F [Compound 568],≥ 5.70
6,CCS(=O)(=O)c1ccc(C(=O)N2CCC3(CC2)c2ccc(C(F)(F)F)n2CCN3C)cc1C [Compound 298],≥ 5.70
7,C[C@H]1Cn2c(C(=O)C(F)(F)F)ccc2C2(CCN(C(=O)c3ccccc3OC(F)F)CC2)N1C [Compound 552],≥ 5.70
8,CC(C)Oc1ccc(C(=O)N2CCC3(CC2)c2ccc(C(F)(F)F)n2CCN3C)cc1 [Compound 488],≥ 5.70
9,CN1CCn2c(C(=O)C(F)(F)F)ccc2C12CCN(C(=O)c1ccc(OC(F)(F)F)cc1)CC2 [Compound 185],≥ 5.70
10,CC(=O)c1ccc2n1CCN(C)C21CCN(C(=O)c2ccc(OCc3ccccc3)cc2)CC1 [Compound 604],≥ 5.70
11,CC(=O)c1ccc2n1CCN(C)C21CCN(C(=O)c2ccc(OC(C)C)c(Cl)c2)CC1 [Compound 398],≥ 5.70
12,C[C@H]1Cn2c(C(=O)C(F)(F)F)ccc2C2(CCN(C(=O)c3ccc(O)c(Cl)c3)CC2)N1C [Compound 700],≥ 5.70
13,CNC(=O)N1CCn2c(C(F)(F)F)ccc2C12CCN(C(=O)c1ccc(OC(C)C)c(OC)c1)CC2 [Compound 119],≥ 5.70
14,Cc1cc(C(=O)N2CCC3(CC2)c2ccc(Cl)n2CCN3C)ccc1OCC(C)(C)O [Compound 531],≥ 5.70
15,COc1cc(C(=O)N2CCC3(CC2)c2c(F)cc(C(F)(F)F)n2CCN3C)ccc1OCCO [Compound 540],< 5.30
16,Cc1cc(C(=O)N2CCC3(CC2)c2ccc(C(=O)C(F)(F)F)n2CCN3C)ccc1-c1ccnn1C [Compound 478],< 5.30
17,COc1cc(C(=O)N2CCC3(CC2)c2c(Cl)cc(C(F)(F)F)n2CCN3C)ccc1COCCC(F)(F)F [Compound 554],≥ 5.70
18,Cc1cc(C(=O)N2CCC3(CC2)c2ccc(C(F)(F)C(F)(F)F)n2CCN3C)ccc1OCCCO [Compound 96],≥ 5.70
19,CN1CCn2c(C(F)(F)F)ccc2C12CCN(C(=O)c1cccnc1Oc1ccccc1)CC2 [Compound 422],≥ 5.70
20,Cc1cc(N2CCCC2)n2ncc(C(=O)N3CCC4(CC3)c3ccc(C(F)(F)F)n3CCN4C)c2n1 [Compound 378],≥ 5.70
21,CN1CCn2c(C(=O)C(F)(F)F)ccc2C12CCN(C(=O)c1ccc(C3CC3)cc1)CC2 [Compound 389],≥ 5.70
22,CN1CCn2c(C(=O)C(F)(F)F)ccc2C12CCN(C(=O)c1ccc(C(C)(C)O)cc1)CC2 [Compound 358],5.30 to 5.70
23,Cc1cc(C(=O)N2CCC3(CC2)NCC(C)(C)n2c(C(F)(F)F)ccc23)ccc1C(C)(C)O [Compound 128],≥ 5.70
24,CN1CCn2c(C(=O)C3CC3)ccc2C12CCN(C(=O)c1ccc(O)c(Cl)c1)CC2 [Compound 31],5.30 to 5.70
25,COc1cc(C(=O)N2CCC3(CC2)c2ccc(C(F)(F)F)n2CCN3C)ccc1OC(C)(C)C [Compound 158],≥ 5.70

# More lines, now with the values ahead:
row,pIC50,SMILES
1,≥ 5.70,Cc1cc(C(=O)N2CCC3(CC2)c2ccc(C(=O)C(F)(F)F)n2CCN3C)ccc1OC(C)C [Compound 117]
2,≥ 5.70,CC(C)Oc1ccc(C(=O)N2CCC3(CC2)c2ccc(C(=O)C(C)(C)C)n2CCN3C)c(F)c1 [Compound 91]
3,≥ 5.70,COc1cc(C(=O)N2CCC3(CC2)c2c(Cl)cc(C(F)(F)F)n2CCN3C)ccc1OCC(C)(C)F [Compound 258]
4,≥ 5.70,CC(C)(O)c1ccc(C(=O)N2CCC3(CC2)c2ccc(C(F)(F)F)n2CCN3CC(F)(F)F)cc1 [Compound 366]
5,≥ 5.70,CC1CN(C)C2(CCN(C(=O)c3ccc(COCCC(F)(F)F)cc3)CC2)c2ccc(C(=O)C(F)(F)F)n21 (centres unmarked) [Compound 8]
6,≥ 5.70,Cc1cc(C(=O)N2CCC3(CC2)c2ccc(C(=O)C(C)(C)C)n2CCN3C)ccc1OCCCO [Compound 711]
7,≥ 5.70,Cc1cc(C(F)F)n2ncc(C(=O)N3CCC4(CC3)c3ccc(C(=O)C(C)(C)C)n3CCN4C)c2n1 [Compound 248]
8,≥ 5.70,CN1CCn2c(C(F)(F)F)cc(Cl)c2C12CCN(C(=O)c1ccc(COCC(F)(F)F)cc1)CC2 [Compound 75]
9,≥ 5.70,CC(C)Oc1ccc(C(=O)N2CCC3(CC2)c2ccc(C(=O)C4(C)CC4)n2CCN3C)cc1CO [Compound 656]
10,≥ 5.70,CC1(C)Cn2c(C(=O)C(F)(F)F)ccc2C2(CCN(C(=O)c3ccc(S(=O)(=O)C(C)(C)C)cc3)CC2)N1 [Compound 208]
11,≥ 5.70,CCCOc1ccc(C(=O)N2CCC3(CC2)c2c(F)cc(C(F)(F)F)n2CCN3C)cc1OC [Compound 397]
12,≥ 5.70,Cc1cc(C(=O)N2CCC3(CC2)c2ccc(C(F)(F)F)n2CCN3C)ccc1OCCCO [Compound 583]
13,≥ 5.70,CC(=O)c1ccc2n1CCN(C)C21CCN(C(=O)c2ccc(COCCC(F)(F)F)cc2)CC1 [Compound 623]
14,≥ 5.70,CC(C)Oc1ccc(C(=O)N2CCC3(CC2)c2ccc(C(=O)C(F)(F)F)n2C[C@H](C)N3C)cc1F [Compound 439]
15,≥ 5.70,CC(C)Oc1ccc(C(=O)N2CCC3(CC2)c2ccc(C(=O)C(F)(F)F)n2CCN3C)cc1 [Compound 233]
16,≥ 5.70,Cc1nc(C(=O)N2CCC3(CC2)NCC(C)n2c(C(=O)C(F)(F)F)ccc23)ccc1OC(C)C (centres unmarked) [Compound 198]
17,≥ 5.70,Cc1cc(C(=O)N2CCC3(CC2)c2ccc(CC(F)(F)F)n2CCN3C)ccc1OC(C)C [Compound 279]
18,≥ 5.70,CN1CCn2c(C(F)(F)F)cc(F)c2C12CCN(C(=O)c1ccc(C(C)(C)O)cc1)CC2 [Compound 193]
19,≥ 5.70,COc1ccc(C(=O)N2CCC3(CC2)c2ccc(C(=O)c4ccccc4)n2CCN3C)cc1C(F)(F)F [Compound 180]
20,≥ 5.70,CCCCOc1ccc(C(=O)N2CCC3(CC2)NCCn2c(C(F)(F)F)ccc23)cc1OC [Compound 181]
21,≥ 5.70,COc1ccc(C(=O)N2CCC3(CC2)c2ccc(C(=O)C(C)C)n2CCN3C)cc1Cl [Compound 413]
22,≥ 5.70,COc1cc(C(=O)N2CC[C@@]3(c4ccc(C(F)(F)F)n4CCN3C)[C@H](F)C2)ccc1OC(C)C [Compound 327]
23,≥ 5.70,CC(C)S(=O)(=O)c1ccc(C(=O)N2CCC3(CC2)NC(C)(C)Cn2c(C(=O)C(F)(F)F)ccc23)cc1 [Compound 557]
24,≥ 5.70,CC1(C)Cn2c(C(=O)C(F)(F)F)ccc2C2(CCN(C(=O)c3ccc(O)c(Cl)c3)CC2)N1 [Compound 491]
